Measured values: patent US20120172390A1, “METHOD OF TREATING SLEEP DISORDERS USING THE COMBINATION OF EPLIVANSERIN AND ZOLPIDEM” (priority 2009, published 2012)

Experiments:
[1] = Critical Flicker Fusion (CFF) test, next-day morning; format: in vivo, human
[2] = design: species or system human; conditions: in vivo
[3] = Immediate recall of Word list, next-day morning; format: in vivo, human
[4] = Delayed Recall of Word Lists, next-day morning; format: in vivo, human
[5] = Compensatory Tracking Task (CTT), next-day morning; format: in vivo, human
[6] = Bond-Lader Visual Analog Scale (VAS), next-day morning; format: in vivo, human
[7] = Global analysis of the 7 primary psychomotor/cognitive endpoints (multivariate mixed effect model); format: in vivo, human
[8] = Adverse events and tolerability in healthy individuals
Procedure: Single center study employing a two-part, double-blind, randomized, placebo- and active-controlled, 4-way crossover design (FIG. 1). Eligibility criteria included certification of good health, 18-50 years of age, and written informed consent.
Part A (the first part of the study): participants were first administered either one evening dose of flurazepam 30 mg or matching placebo, and after a 21-day washout period, participants were administered the other treatment.
Part B: participants received either an evening dose of eplivanserin 5 mg or matching placebo for 21 days, followed by co-administration with a single dose of zolpidem-IR 10 mg.
After this phase of the study, participants were then administered the reverse treatment sequence.
Adverse events were recorded (Medical Dictionary for Regulatory Activities v9.1). Other measures included vital signs, standard clinical laboratory parameters (biochemistry, hematology, and urinalysis), and electrocardiograms.

[9] = Steady-state levels after repeated administration in the study; format: in vivo, human; conditions: after 20 days of repeated administration of eplivanserin 5 mg; also for its active metabolite
Procedure: As a consequence, cognitive/psychomotor performance was assessed under steady state conditions.

[10] = in vivo; cited from earlier work
GABA receptors = conditions: unlike benzodiazepines; cited from earlier work
[11] = flurazepam 30 mg single evening dose vs placebo, P=0.0001
[12] = eplivanserin 5 mg evening dose for 21 days vs placebo, P>0.1

With `CCN(CC)CCN1C(=O)CN=C(c2ccccc2F)c2cc(Cl)ccc21` [flurazepam, reference compound] the “CFF point of subjective equality, mean difference estimate” value ([1]; flurazepam 30 mg single evening dose vs placebo, P=0.2005) was −0.52 Hz, the “CRT total reaction time, mean difference estimate” value [2] was 47.46 ms and the “Immediate word recall number of correct responses, mean difference estimate” value [3, 11] was −3.08. The “Delayed word recall number of correct responses, mean difference estimate” value [4, 11] was −4.38, the “Compensatory tracking task overall average response time, mean difference estimate” value ([5]; flurazepam 30 mg single evening dose vs placebo, P=0.0029) was 49.98 ms and the “Compensatory tracking task overall average tracking errors, mean difference estimate” value ([5]; flurazepam 30 mg single evening dose vs placebo, P=0.0221) was 1.64 pixels. For the same compound, the “Bond and Lader visual analogue scale alertness, mean difference estimate” value ([6]; flurazepam 30 mg single evening dose vs placebo, P=0.0031) was 62.38, the “Overall treatment effect on the 7 primary endpoints (global analysis)” value ([7]; flurazepam 30 mg single dose compared with placebo, P=0.0001) was “associated with an overall treatment effect” and the Adverse events reported ([8]; Part A, flurazepam 30 mg single dose, healthy individuals) was 2/24.
In the case of `Cc1ccc(-c2nc3ccc(C)cn3c2CC(=O)N(C)C)cc1` [zolpidem], the Adverse events reported ([8]; Part B, co-administration phase with single dose zolpidem-IR 10 mg) is reported as 1/24.
In the case of `CN(C)CCO/N=C(/C=C/c1ccc(O)cc1)c1ccccc1F` [eplivanserin, (1Z, 2 E)-1-(2-fluorophenyl)-3-(4-hydroxyphenyl)-prop-2-en-1-one-O-(2-dimethylaminoethyl)oxime], the “CFF point of subjective equality, mean difference estimate” value ([1]; eplivanserin 5 mg evening dose for 21 days vs placebo, P=0.0002) is reported as −1.01 Hz, the “CRT total reaction time, mean difference estimate” value [2] is reported as -10.40 ms and the “Immediate word recall number of correct responses, mean difference estimate” value [3, 12] is reported as −1.04. For the same compound, the “Delayed word recall number of correct responses, mean difference estimate” value [4, 12] was −0.33, the “Compensatory tracking task overall average response time, mean difference estimate” value [5, 12] was 13.03 ms and the “Compensatory tracking task overall average tracking errors, mean difference estimate” value [5, 12] was −0.22 pixels. The “Bond and Lader visual analogue scale alertness, mean difference estimate” value [6, 12] was 9.38, the “Overall treatment effect on the 7 primary endpoints (global analysis)” value ([7]; eplivanserin 5 mg 21 days alone compared with placebo, P=0.0603) was “not associated with an overall treatment effect” and the “Headache, participants reporting” value ([8]; Part B, eplivanserin 5 mg 21 days, 6/24, placebo also 25%) was 25%. The “Dizziness, somnolence and asthenia, participants reporting” value ([8]; Part B, eplivanserin 5 mg 21 days, 7/24, placebo 4.2% (1/24)) was 29.2%, the Tolerability ([8]; eplivanserin 5 mg, alone and in combination with zolpidem) was “well tolerated” and the Steady-state levels [9] was “Steady-state levels were reached”. For the same compound, the Absorption [10] was over 70% and the “Binding to GABA receptors” value (GABA receptors) was “does not bind”.
